# Data: US20080096967A1, “Formulations for Injection of Catecholic Butanes, Including Ndga Compounds, Into Animals” (priority 2005, published 2008)
# What was measured:
# [1] = M4N stability in 11-14 mg/mL PEG300/HP-β-CD solutions at room temperature (RP-HPLC); format: physicochemical; details: for Observed M4N: room temperature
# Procedure: To support manufacturing specifications, this study examined the 24-hour room temperature stability of combinations of PEG300/HP-β-CD at varying M4N target concentrations. Stock samples of M4N stocks were prepared in 100% PEG 300 at drug concentrations of 33-56 mg/mL at 60° C. as follows.
# M4N bulk drug was solubilized to concentrations of 33, 44, 48, 52, 55 and 56 mg/mL (w/w) in PEG 300 using the procedure set forth in Examples 13 and 16, following incubation of at least 2 hours at 60° C. Vigorous vortexing and mixing were necessary for complete solubilization of M4N above 44 mg/mL. The M4N stock solutions were filtered through a 0.45 μm SFCA filter and used within 30 minutes of preparation. Separately, a solution of 40% (w/v) HP-β-CD was prepared in sterile WFI and filtered. Combinations of the 40% HP-β-CD stock and the M4N/PEG 300 stocks were combined in 1.5 mL polypropylene microtubes.
# The requisite amount of M4N stock was added to 40% HP-β-CD to yield the final concentrations of drug and excipients listed in Table 28. Samples were gently rotated (˜12 rpm) at room temperature. At 2 and 24 hours of incubation, samples were centrifuged 2 minutes at 13,000 rpm and 50 μL aliquots were removed for RP-HPLC analysis.
# healthy male subjects = assay: Human Phase 0 microdose study: tolerability; format: in vivo; details: oral and intravenous administrations, 100 μg
# Procedure: This study was designed to assess the absorption of M4N when administered to humans as a sub-therapeutic dose either as a single oral dose under fed and fasted conditions or a single intravenous dose (Regimens A-C, respectively, in Table 24). The study was a three-way crossover study design in a target population of healthy male subjects and consisted of three study periods of approximately 35 hours duration, each separated by a minimum period of at least 7 days between dosing. During the course of each study period, pharmacokinetic blood samples were taken at specified time points after dosing and urine was collected over pre-defined time intervals. The subjects were able to leave the clinical unit after the completion of study specific procedures at 24 hours post-dose.
# Sprague-Dawley rats = assay: 8-Day IV infusion toxicity study in Sprague-Dawley rats; format: in vivo
# Procedure: Escalating doses of 0, 100, 150, or 200 mg/kg M4N in 10% HP-β-CD in PEG 300 (6.25 mg/mL) were administered by IV infusion once every four days to male and female Sprague-Dawley rats (3/each sex) at 8 mL/kg/hr. […] […] One male rat was found dead on the first day dosage during administration of the vehicle and one female rat was found dead on day 5 of the study at the end of the infusion of 100 mg/kg of the test material. These deaths were not considered related to the test article because for one rat no test article (only vehicle) was administered and for the other rat, this was a single event with other rats surviving multiple days of dosing at 200 mg/kg/day.
# [2] = 200 mg/kg/day, continued daily dosing phase
smiles,measurement,setting,value
"COc1ccc(C[C@@H](C)[C@@H](C)Cc2ccc(OC)c(OC)c2)cc1OC [Formulation M4N, meso-1,4-bis(3,4-dimethoxyphenyl)-2,3-dimethylbutane]",Observed M4N,"[1]; 11 mg/mL M4N, 20% PEG300, 32% HP-β-CD, t = 2 hours",11.5 mg/mL
same,Observed M4N,"[1]; 11 mg/mL M4N, 20% PEG300, 32% HP-β-CD, t = 24 hours",11.4 mg/mL
same,Observed M4N,"[1]; 11 mg/mL M4N, 25% PEG300, 30% HP-β-CD, t = 2 hours",11.3 mg/mL
same,Observed M4N,"[1]; 11 mg/mL M4N, 25% PEG300, 30% HP-β-CD, t = 24 hours",11.3 mg/mL
same,Observed M4N,"[1]; 11 mg/mL M4N, 33% PEG300, 27% HP-β-CD, t = 2 hours",11.4 mg/mL
same,Observed M4N,"[1]; 11 mg/mL M4N, 33% PEG300, 27% HP-β-CD, t = 24 hours",11.3 mg/mL
same,Observed M4N,"[1]; 12 mg/mL M4N, 25% PEG300, 30% HP-β-CD, t = 2 hours",11.8 mg/mL
same,Observed M4N,"[1]; 12 mg/mL M4N, 25% PEG300, 30% HP-β-CD, t = 24 hours",11.6 mg/mL
same,Observed M4N,"[1]; 13 mg/mL M4N, 25% PEG300, 30% HP-β-CD, t = 2 hours",12.7 mg/mL
same,Observed M4N,"[1]; 13 mg/mL M4N, 25% PEG300, 30% HP-β-CD, t = 24 hours",12.7 mg/mL
same,Observed M4N,"[1]; 14 mg/mL M4N, 25% PEG300, 30% HP-β-CD, t = 2 hours",13.5 mg/mL
same,Observed M4N,"[1]; 14 mg/mL M4N, 25% PEG300, 30% HP-β-CD, t = 24 hours",13.5 mg/mL
same,stability,"[1]; 11-14 mg/mL M4N, 25% PEG 300 and 30% HP-β-CD, 24 hours at room temperature",stable
same,adverse events,healthy male subjects,no serious or severe adverse events
same,tolerability of study formulations,healthy male subjects,well tolerated
same,clinical observations: ptosis and hyperactivity,Sprague-Dawley rats; [2],ptosis and hyperactivity occurred in one male and one female rat
same,clinical observations: tremors,Sprague-Dawley rats; [2],tremors did occur in one male and one female rat
same,mortality,"Sprague-Dawley rats; 100, 150 or 200 mg/kg M4N in 10% HP-β-CD in PEG 300 (6.25 mg/mL), IV infusion 8 mL/kg/hr",No obvious mortality related to M4N occurred
same,doses that appeared to be tolerated,Sprague-Dawley rats; for up to eight consecutive days,≤ 200 mg/kg/day
same,body weight,Sprague-Dawley rats; male and female rats,gained weight throughout the study
